From patent US20250019374A1, “PROTEIN TYROSINE PHOSPHATASE INHIBITORS AND METHODS OF USE THEREOF” (Calico Life Sciences LLC, priority 2021, published 2025) come the findings set out here.

One may read the IC50 as the concentration that inhibits the measured activity by half. A word on the EC50: it is the concentration that produces a half-maximal response.

Read-outs that look alike come from different tables or passages of the source.

Experiment [1] addresses His tagged PTPN2 (TC45) protein (Homo sapiens (Human), UniProt P17706). The experiment in a line: PTPN2 Mobility Shift Assay (MSA). In kind it is biochemical. The note with it: for Dihydrobenzofuran or Indoline x-fold>potency biochemical: x-fold versus corresponding chromane comparator, PTPN2 MSA. As to the method:
Example III-1: Mobility Shift Assay (MSA) Used to Determine Potency of PTPN2 Inhibitors
Compound activity was determined using in house His tagged PTPN2 (TC45) protein (SEQ ID NO: 1) in an in vitro enzymatic reaction. The enzymatic assay used to determine activity was a mobility shift assay using a LabChip EZ Reader by Caliper Life Sciences. The enzymatic reaction was carried out in assay buffer (50 mM HEPES pH 7.5, 1 mM EGTA, 10 mM EDTA, 0.01% Tween® 20, and 2 mM DTT). The compounds were dispensed on a white 384 well ProxiPlate™ (PerkinElmer Catalog #6008289) plate using the Labcyte Echo at varying concentrations (12 point, 1:3 dilution). The enzyme (at 0.5 nM) was incubated with compound for 10 minutes at room temperature. Thereafter, the substrate (phosphorylated insulin receptor probe sequence: ((OG488)-(NH—CH2—CH2—O—CH2—CH2—O—CH2—CO)-T-R-D-I—(PY)-E-T-D-Y—Y—R—K—K—NH2) (SEQ ID NO: 2) was added at 2 μM to the plates and incubated for another 10 minutes at room temperature. Finally, a quench solution (water and 4-bromo-3-(2-oxo-2-propoxyethoxy)-5-(3-{[1-(phenylmethanesulfonyl)piperidin-4-yl]amino}phenyl)thiophene-2-carboxylic acid) was added to the plates, which were then run on the EZ Reader (excitation 488 nm, emission 530 nm) to measure % conversion (the amount of phosphorylated substrate which was de-phosphorylated by PTPN2). […] The % inhibition was then used to calculate the IC50 values.

Experiment [2] deals with His tagged full-length PTPN1 protein (Homo sapiens (Human), UniProt P18031). Briefly: PTPN1 Mobility Shift Assay (MSA). In kind it is biochemical. To be noted: enzyme 0.5 nM, substrate 2 μM. How it is done: Example III-2: Mobility Shift Assay (MSA) Used to Determine Potency of PTPN1 Inhibitors
Chain of His tagged full-length PTPN1 protein (P18031 whole entry): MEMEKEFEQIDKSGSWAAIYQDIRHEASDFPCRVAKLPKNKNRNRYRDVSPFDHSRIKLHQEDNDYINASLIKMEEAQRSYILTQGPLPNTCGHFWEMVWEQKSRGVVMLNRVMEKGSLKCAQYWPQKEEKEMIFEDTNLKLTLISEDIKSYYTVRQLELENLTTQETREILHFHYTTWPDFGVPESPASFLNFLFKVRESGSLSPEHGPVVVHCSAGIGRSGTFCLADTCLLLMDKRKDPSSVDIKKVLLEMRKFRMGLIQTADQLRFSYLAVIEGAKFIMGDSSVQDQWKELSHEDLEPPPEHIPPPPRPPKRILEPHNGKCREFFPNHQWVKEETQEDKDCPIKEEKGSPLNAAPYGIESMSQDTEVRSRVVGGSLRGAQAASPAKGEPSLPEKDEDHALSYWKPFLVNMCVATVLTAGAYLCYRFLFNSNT
Compound activity was determined using in house His tagged full-length PTPN1 protein (SEQ ID NO: 3) in an in vitro enzymatic reaction. The enzymatic assay used to determine activity is a mobility shift assay using a LabChip EZ Reader by Caliper Life Sciences. The enzymatic reaction was carried out in assay buffer (50 mM HEPES pH 7.5, 1 mM EGTA, 10 mM EDTA, 0.01% Tween® 20, and 2 mM DTT). The compounds were dispensed on a white 384 well ProxiPlate™ (PerkinElmer Cat ^#6008289) plate using a Labcyte Echo® liquid handler at varying concentrations (12 point, 1:3 dilution). The enzyme (at 0.5 nM) was incubated with compound for 10 minutes at room temperature. Thereafter, the substrate (phosphorylated insulin receptor probe sequence: ((OG488)-(NH—CH2—CH2—O—CH2—CH2—O—CH2—CO)-T-R-D-I—(PY)-E-T-D-Y—Y—R—K—K—NH2) (SEQ ID NO: 2) was added at 2 μM to the plates and incubated for another 10 minutes at room temperature. Finally, a quench solution (water and 4-bromo-3-(2-oxo-2-propoxyethoxy)-5-(3-{[1-(phenylmethanesulfonyl)piperidin-4-yl]amino}phenyl)thiophene-2-carboxylic acid) was added to the plates, which were then run on the EZ Reader (excitation 488 nm, emission 530 nm) to measure % conversion (the amount of phosphorylated substrate which was de-phosphorylated by PTPN1). […] The % inhibition was then used to calculate the IC50 values.

Experiment [3] deals with IFNγ-induced STAT1 phosphorylation (pSTAT1) in B16F10 cells. Briefly: B16F10 Phospho-STAT1 HTRF proximal pharmacodynamic (PD) assay. It counts as cell-based, murine. To be noted: for EC50: B16-F10, B16F10 cells; for Dihydrobenzofuran or Indoline x-fold>potency cellular: x-fold versus corresponding chromane comparator, B16F10 pSTAT1. How it is done:
Example III-3: B16F10 (Murine Melanoma Cells) Phospho-STAT1 HTRF Proximal Pharmacodynamic (PD) Assay
B16F10 cells were grown and maintained in high glucose DMEM (Gibco, Catalog^#11965-092, Dun Laoghaire Co Dublin) supplemented with 10% fetal bovine serum (Gibco, Catalog^#10082-139, Dun Laoghaire Co Dublin). The cells were pelleted and resuspended in high glucose DMEM without phenol red (Gibco, Catalog^#11054-020, Dun Laoghaire Co Dublin), supplemented with 10% fetal bovine serum and plated in a 384 well Corning plate (product^#3765, Corning, NY) at 11,000 cells per well in a volume of 20 μL. The cells were dosed with the compounds of interest using an Echo Liquid Handler (Beckman Coulter, Brea, CA) at 50 μM top dose with 3-fold dilutions down to 0.002679 μM for a 10-point dose response. The plate was incubated for 3 hours at 37° C. and subsequently treated with recombinant mouse IFNγ (R&D Systems, Catalog^#485-MI, Minneapolis, MN; 100 nM final concentration) for 10 minutes at 37° C. to induce STAT1 phosphorylation followed by 3.3 μM staurosporine treatment for 1 hour at 37° C. to terminate phosphorylation. Media was then aspirated and 20 μL of 1× lysis buffer/blocking reagent (Cisbio Phospho-STAT1 kit, part^# 63ADK026PEH, Bedford, MA) was added. The plate was placed on a plate shaker for 30 minutes at room temperature, sealed, and stored at −80° C. until needed. To thaw, the plate was placed on shaker at room temperature until completely thawed while the antibody master mix was made (1:40 Phospho-STAT1 Eu Cryptate antibody, 1:40 Phospho-STAT d2 antibody, with the detection buffer; Cisbio Phospho-STAT1 kit, part^#63ADK026PEH, Bedford, MA). The antibody master mix was then dispensed at 4 μL per well into a 384 ProxiPlate Plus (PerkinElmer, part^#6008289, Waltham, MA) and 16 μL of lysate was added from the Corning plate to the Proxiplate using a VIAFLO 384 (INTEGRA). The plate was incubated for 3 hours at room temperature and read on an EnVision® (Perkin Elmer) plate reader with laser excitation at 335 nm and emission at 665 nm. Dotmatics Studies (Bishop's Stortford, UK) was utilized to generate all dose-response curves and calculate EC50s and are shown in Table 2.

[4] abbreviates: 3 hours compound, 100 nM mouse IFNγ 10 minutes, read-out: B16F10 IFNγ Induced pSTAT1 EC50.
[5] abbreviates: Table 3, dihydrobenzofuran or indoline compound (X = O or NH).
Setting [6] is: Mus musculus, Table 3, dihydrobenzofuran or indoline compound (X = O or NH), read-out: pSTAT1 EC50.

Chain of His tagged PTPN2 (TC45) protein (P17706 other isoform, or with tags, fused parts or gaps): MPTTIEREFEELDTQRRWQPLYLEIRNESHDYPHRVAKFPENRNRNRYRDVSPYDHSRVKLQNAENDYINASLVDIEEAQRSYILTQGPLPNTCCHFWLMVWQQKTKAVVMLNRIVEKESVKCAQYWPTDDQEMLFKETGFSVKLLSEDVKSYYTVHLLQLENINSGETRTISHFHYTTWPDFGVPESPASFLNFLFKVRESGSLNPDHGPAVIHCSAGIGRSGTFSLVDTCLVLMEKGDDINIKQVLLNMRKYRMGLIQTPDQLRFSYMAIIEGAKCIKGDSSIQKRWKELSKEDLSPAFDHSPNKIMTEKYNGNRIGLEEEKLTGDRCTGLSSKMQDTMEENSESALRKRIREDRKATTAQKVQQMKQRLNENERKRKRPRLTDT

Regarding `CCC(C)CNC[C@H]1Cc2c(cc(O)c(N3CC(=O)NS3(=O)=O)c2F)O1` (stereo partly drawn) [Compound 116, 5-[(2R)-4-fluoro-6-hydroxy-2-{[(2-methylbutyl)amino]methyl}-2,3-dihydro-1-benzofuran-5-yl]-1λ^6,2,5-thiadiazolidine-1,1,3-trione], the IC50 was 10 to 100 nM in experiment [1] (enzyme 0.5 nM, substrate 2 μM) and 10 to 100 nM in experiment [2]. Moreover, the EC50 in experiment [3] (setting [4]) came to 736 nM.
Turning to `O=C1CN(c2c(O)cc3c(c2F)C[C@H](CNCCCC(F)F)O3)S(=O)(=O)N1` [Compound 107, 5-[(2R)-2-{[(4,4-difluorobutyl)amino]methyl}-4-fluoro-6-hydroxy-2,3-dihydro-1-benzofuran-5-yl]-1λ^6,2,5-thiadiazolidine-1,1,3-trione], the IC50 in experiment [1] (setting [5]) was 13.3 nM; in experiment [1] (enzyme 0.5 nM, substrate 2 μM), 10 to 100 nM; in experiment [2] it was 10 to 100 nM. In experiment [1], the “Dihydrobenzofuran or Indoline x-fold>potency biochemical” value worked out at 0.7. Besides, the concentration giving a half-maximal response (EC50) in experiment [3] (setting [4]) and in experiment [3] (setting [6]) was 1330 nM throughout. The “Dihydrobenzofuran or Indoline x-fold>potency cellular” value in experiment [3] was 2.7.
In the case of `O=C1CN(c2c(O)cc3c(c2F)C[C@H](CNCCCc2ccccc2)O3)S(=O)(=O)N1` [Compound 127, 5-[(2R)-4-fluoro-6-hydroxy-2-{[(3-phenylpropyl)amino]methyl}-2,3-dihydro-1-benzofuran-5-yl]-1λ^6,2,5-thiadiazolidine-1,1,3-trione], the IC50 in experiment [1] (setting [5]) is 4.05 nM; in experiment [1] (enzyme 0.5 nM, substrate 2 μM), less than 10 nM; in experiment [2], 10 to 100 nM. Further, the “Dihydrobenzofuran or Indoline x-fold>potency biochemical” value in experiment [1] is reported as 4.7. Further, the EC50 in experiment [3] (setting [4]) and in experiment [3] (setting [6]) was 10800 nM in each case. Also, in experiment [3], the “Dihydrobenzofuran or Indoline x-fold>potency cellular” value is listed as more than 4.6.
Consider `CC1=C(CCNC[C@H]2Cc3c(cc(O)c(N4CC(=O)NS4(=O)=O)c3F)O2)C(C)(C)CCC1` [Compound 128, 5-[(2R)-4-fluoro-6-hydroxy-2-({[2-(2,6,6-trimethylcyclohex-1-en-1-yl)ethyl]amino}methyl)-2,3-dihydro-1-benzofuran-5-yl]-1λ^6,2,5-thiadiazolidine-1,1,3-trione], for which the IC50 in experiment [1] (setting [5]) is 1.81 nM; in experiment [1] (enzyme 0.5 nM, substrate 2 μM), less than 10 nM; in experiment [2], 10 to 100 nM. For the same compound, in experiment [1], the “Dihydrobenzofuran or Indoline x-fold>potency biochemical” value is 12.5. In addition, the EC50 in experiment [3] (setting [4]) and in experiment [3] (setting [6]) was more than 50000 nM each time. For the same compound, the “Dihydrobenzofuran or Indoline x-fold>potency cellular” value in experiment [3] is approximately 1.0.
For the compound `O=C1CN(c2c(O)cc3c(c2F)C[C@H](CNCCC2(CO)CCC2)O3)S(=O)(=O)N1` [Compound 121, 5-{(2R)-4-fluoro-6-hydroxy-2-[({2-[1-(hydroxymethyl)cyclobutyl]ethyl}amino)methyl]-2,3-dihydro-1-benzofuran-5-yl}-1λ^6,2,5-thiadiazolidine-1,1,3-trione], the IC50 is 10 to 100 nM in experiment [1] (enzyme 0.5 nM, substrate 2 μM) and 10 to 100 nM in experiment [2]. The EC50 in experiment [3] (setting [4]) came to 1740 nM.
As for `CC(C)(O)CCNC[C@H]1Cc2c(cc(O)c(N3CC(=O)NS3(=O)=O)c2F)O1` [Compound 105, 5-[(2R)-4-fluoro-6-hydroxy-2-{[(3-hydroxy-3-methylbutyl)amino]methyl}-2,3-dihydro-1-benzofuran-5-yl]-1λ^6,2,5-thiadiazolidine-1,1,3-trione], the IC50 was in the range of 10 to 100 nM in experiment [1] (enzyme 0.5 nM, substrate 2 μM) and 10 to 100 nM in experiment [2]. Moreover, the EC50 in experiment [3] (setting [4]) was determined as 2950 nM.
With `O=C1CN(c2c(O)cc3c(c2F)C[C@H](CNCC2CCCC2)N3)S(=O)(=O)N1` [Compound 146, 5-[(2R)-2-{[(cyclopentylmethyl)amino]methyl}-4-fluoro-6-hydroxy-2,3-dihydro-1H-indol-5-yl]-1λ^6,2,5-thiadiazolidine-1,1,3-trione], the IC50 in experiment [1] (enzyme 0.5 nM, substrate 2 μM) is 10 to 100 nM; in experiment [2], 10 to 100 nM. Besides, the EC50 in experiment [3] (setting [4]) came out at 1830 nM.
Consider `CC(C)CNC[C@H]1Cc2c(cc(O)c(N3CC(=O)NS3(=O)=O)c2F)N1C` [Compound 156, 5-[(2R)-4-fluoro-6-hydroxy-1-methyl-2-{[(2-methylpropyl)amino]methyl}-2,3-dihydro-1H-indol-5-yl]-1λ^6,2,5-thiadiazolidine-1,1,3-trione], for which the IC50 in experiment [1] (enzyme 0.5 nM, substrate 2 μM) is more than 100 nM; in experiment [2], more than 100 nM.
Turning to `CC(C)CNC[C@@H]1Cc2c(cc(O)c(N3CC(=O)NS3(=O)=O)c2F)O1` [Compound 101, 5-[(2S)-4-fluoro-6-hydroxy-2-{[(2-methylpropyl)amino]methyl}-2,3-dihydro-1-benzofuran-5-yl]-1λ^6,2,5-thiadiazolidine-1,1,3-trione], the IC50 in experiment [1] (enzyme 0.5 nM, substrate 2 μM) was more than 100 nM; in experiment [2], more than 100 nM.
As for `CC(C)(C)OC(=O)N1CCC(CNC[C@H]2Cc3c(cc(O)c(N4CC(=O)NS4(=O)=O)c3F)O2)CC1` [Compound 124, tert-butyl 4-[({[(2R)-4-fluoro-6-hydroxy-5-(1,1,4-trioxo-1λ^6,2,5-thiadiazolidin-2-yl)-2,3-dihydro-1-benzofuran-2-yl]methyl}amino)methyl]piperidine-1-carboxylate], the IC50 in experiment [1] (setting [5]) is 13.2 nM; in experiment [1] (enzyme 0.5 nM, substrate 2 μM), 10 to 100 nM; in experiment [2], 10 to 100 nM. Also, in experiment [1], the “Dihydrobenzofuran or Indoline x-fold>potency biochemical” value stood at 1.1.
Take `O=C1CN(c2c(O)cc3c(c2F)C[C@H](CNCCCOCC(F)F)O3)S(=O)(=O)N1` [Compound 123, 5-[(2R)-2-({[3-(2,2-difluoroethoxy)propyl]amino}methyl)-4-fluoro-6-hydroxy-2,3-dihydro-1-benzofuran-5-yl]-1λ^6,2,5-thiadiazolidine-1,1,3-trione]: the concentration for half-maximal inhibition (IC50) in experiment [1] (setting [5]) was 11.2 nM; in experiment [1] (enzyme 0.5 nM, substrate 2 μM), 10 to 100 nM; in experiment [2] it was 10 to 100 nM. Also, the “Dihydrobenzofuran or Indoline x-fold>potency biochemical” value in experiment [1] stood at 2.1.
With `O=C1CN(c2c(O)cc3c(c2F)C[C@H](CNCC(O)C(F)F)N3)S(=O)(=O)N1` (stereo partly drawn) [Compound 157, 5-[(2R)-2-{[(3,3-difluoro-2-hydroxypropyl)amino]methyl}-4-fluoro-6-hydroxy-2,3-dihydro-1H-indol-5-yl]-1λ^6,2,5-thiadiazolidine-1,1,3-trione], the IC50 in experiment [1] (enzyme 0.5 nM, substrate 2 μM) is more than 100 nM; in experiment [2], more than 100 nM.
